{"source": "patent US20130237570A1", "about": "(priority 2002, published 2013)", "key": {"[1]": {"details": "smoking of a cigarette; cited from earlier work"}, "[2]": {"assay": "Buffer capacity determination by titration with 0.1 M HCl", "type": "physicochemical", "details": "without added buffering agent", "description": "Method: 10.0 ml of the respective below solutions was titrated with 0.1 M HCl to pH 7.0. The amount of 0.1 M HCl needed to decrease pH from 9.0 to 8.0 was determined"}, "[3]": {"description": "Absorption of nicotine from the oral cavity to the systemic circulation is dependent on the pH of the saliva and the pKa of nicotine, which is about 7.8. Assuming a pH of the saliva of 6.8 only about 10% of the nicotine in saliva will be in the free base form. Thus, in order to promote absorption of nicotine in a free base form, which is the form predominantly absorbed through the mucosa, the pH of the saliva must be increased. At a pH of 8.8 about 90% of the nicotine in saliva will then be in the free base form."}, "[4]": {"details": "Merck Index; cited from earlier work"}}, "note": "Where two headings read alike, the source gives them in different places."}
{"smiles": "CN1CCCC1c1cccnc1", "note": "(centres unmarked) [nicotine, 3-(1-methyl-2-pyrrolidinyl)-pyridine]", "values": [{"measurement": "time for nicotine to reach the brain after inhalation", "setting": "[1]", "result": "around ten"}, {"measurement": "buffering capacity on its own, in words", "setting": "[2]", "result": "too weak a buffering capacity on its own"}, {"measurement": "nicotine in saliva in the free base form", "setting": "[3]; saliva pH 6.8", "result": "about 10%"}, {"measurement": "nicotine in saliva in the free base form", "setting": "[3]; saliva pH 8.8", "result": "about 90%"}, {"measurement": "amount of nicotine that may kill an adult", "setting": "[4]", "result": "Approximately forty"}]}
